Assay results from ChEMBL document CHEMBL4339189, “Dissymmetric pyridyl-substituted 3,5-bis(arylidene)-4-piperidones as anti-hepatoma agents by inhibiting NF-κB pathway activation” (Eur J Med Chem, 2019).
Active and inactive are the calls of the source. The calls are words filed in the database; no cut-off is given here.

Key:
QGY-7703 = assay: Cytotoxicity against human QGY7703 cells assessed as reduction in cell viability incubated for 24 hrs by MTT assay; format: functional, cell-based; conditions: QGY-7703, 24 h
SMMC-7721 = assay: Cytotoxicity against human SMMC7721 cells assessed as reduction in cell viability incubated for 24 hrs by MTT assay; format: functional, cell-based; conditions: SMMC-7721, 24 h
RAW264.7 [1] = assay: Cytotoxicity against mouse RAW264.7 cells assessed as reduction in cell viability at 6.0 uM incubated for 24 hrs by MTT assay; format: cell-based; conditions: raw264.7, 24 h
L02 = assay: Cytotoxicity against human LO2 cells assessed as reduction in cell viability incubated for 24 hrs by MTT assay; format: cell-based; conditions: L02, 24 h
[2] = Cytotoxicity against human HHL5 cells assessed as reduction in cell viability incubated for 24 hrs by MTT assay; format: cell-based; conditions: HHL-5, 24 h
HepG2 = assay: Cytotoxicity against human HepG2 cells assessed as reduction in cell viability incubated for 24 hrs by MTT assay; format: functional, cell-based; conditions: HepG2, 24 h
RAW264.7 [3] = assay: Antiinflammatory activity in mouse RAW264.7 cells assessed as inhibition of LPS-stimulated TNF-alpha production at 6.0 uM preincubated for 2 hrs followed by LPS stimulaton measured after 22 hrs by ELISA relative to control; format: functional
RAW264.7 [4] = assay: Antiinflammatory activity in mouse RAW264.7 cells assessed as inhibition of LPS-stimulated IL-6 production 6.0 uM preincubated for 2 hrs followed by LPS stimulaton measured after 22 hrs by ELISA relative to control; format: functional

SMILES | IC50 (QGY-7703) [µM] | IC50 (SMMC-7721) [µM] | Activity (RAW264.7 [1]) | IC50 (L02) [µM] | IC50 [2] [µM] | IC50 (HepG2) [µM] | inhibition (RAW264.7 [3]) | inhibition (RAW264.7 [4]) | inhibition at 6 µM (RAW264.7 [3]) [%] | inhibition (INH) (RAW264.7 [4]) [%]
N#Cc1ccc(S(=O)(=O)N2C/C(=C\c3ccncc3)C(=O)/C(=C/c3ccccc3C(F)(F)F)C2)cc1 | 6.29 | 9.61 | Non-Toxic | 17.6 | 19.7 | 5.92 |  |  |  | 
CC(=O)Nc1ccc(S(=O)(=O)N2C/C(=C\c3cccnc3)C(=O)/C(=C/c3ccccc3F)C2)cc1 | 9.64 | 10.9 | Non-Toxic | 15.6 | 14.2 | 4.56 | Active | Active |  | 
O=C1/C(=C/c2ccncc2)CN(S(=O)(=O)c2ccccc2)C/C1=C\c1ccccc1C(F)(F)F | 6.21 | 6.54 | Non-Toxic | 12.3 | 12.1 | 7.02 |  |  |  | 
Cc1ccc(S(=O)(=O)N2C/C(=C\c3ccncc3)C(=O)/C(=C/c3ccccc3F)C2)cc1 | > 20 | 13.2 | Non-Toxic | > 20 | 13.3 | 9.7 | inactive | inactive |  | 
COc1cc(/C=C/C(=O)CC(=O)/C=C/c2ccc(O)c(OC)c2)ccc1O [CURCUMIN] | 23.9 | 16.7 |  | 22.7 | 24.2 | 17.4 |  |  |  | 
CN1C/C(=C\c2cccnc2)C(=O)/C(=C/c2ccc(F)cc2Br)C1 | 2.61 | 20.8 | Non-Toxic | 14.4 | 11.3 | 13 | Active | Active |  | 
CN1C/C(=C\c2ccncc2)C(=O)/C(=C/c2ccccc2C(F)(F)F)C1 | 4.5 | 4.1 | Non-Toxic | 15.8 | 10.4 | 3.3 |  |  | < 30 | <30
O=C1/C(=C/c2ccncc2)CN(S(=O)(=O)c2ccc(Cl)cc2)C/C1=C\c1ccccc1C(F)(F)F | 12.7 | 5.51 | Non-Toxic | 14.9 | 11 | 7.19 |  |  |  | 
O=C1/C(=C/c2ccncc2)CNC/C1=C\c1ccccc1F | 14.2 | 18.4 | Non-Toxic | 14.7 | 13.9 | 8.2 | inactive | inactive |  | 
CN1C/C(=C\c2ccncc2)C(=O)/C(=C/c2cc([N+](=O)[O-])ccc2F)C1 | 5.7 | 14.7 | Non-Toxic | 17.6 | 15.2 | 5.2 |  |  | < 30 | <30
O=C1/C(=C/c2ccncc2)CN(S(=O)(=O)c2ccc(Cl)cc2)C/C1=C\c1ccccc1F | 12.5 | 9.6 | Non-Toxic | 15 | 11.5 | 5.3 | Active | Active |  | 
O=C1/C(=C/c2cccnc2)CN(S(=O)(=O)c2ccc(Br)cc2)C/C1=C\c1ccccc1C(F)(F)F | 5.51 | 5.76 | Non-Toxic | 13.3 | 15.5 | 2.73 | Active | Active |  | 
O=C1/C(=C/c2ccncc2)CN(S(=O)(=O)c2ccc(F)cc2)C/C1=C\c1ccccc1C(F)(F)F | 7.7 | 9.27 | Non-Toxic | 12.9 | 12 | 4.01 |  |  |  | 
N#Cc1ccc(S(=O)(=O)N2C/C(=C\c3cccnc3)C(=O)/C(=C/c3ccccc3F)C2)cc1 | 15.8 | 15.4 | Non-Toxic | > 20 | 15.5 | 6.6 | inactive | inactive |  | 
O=C1/C(=C/c2ccncc2)CN(S(=O)(=O)c2ccc(F)cc2)C/C1=C\c1ccccc1F | 9.1 | > 20 | Non-Toxic | 15.6 | 15.4 | 20.3 | inactive | inactive |  | 
N#Cc1ccc(S(=O)(=O)N2C/C(=C\c3ccncc3)C(=O)/C(=C/c3ccccc3F)C2)cc1 | 8.5 | 16.2 | Non-Toxic | > 20 | 15.7 | 4.5 | Active | Active |  | 
O=C1/C(=C/c2ccncc2)CNC/C1=C\c1ccccc1C(F)(F)F | 4.9 | 4.5 | Non-Toxic | 13.4 | 9.87 | 6.13 | Active | Active |  | 

SMILES | IC50 (QGY-7703) [µM] | IC50 (SMMC-7721) [µM] | Activity (RAW264.7 [1]) | IC50 (L02) [µM] | IC50 [2] [µM] | IC50 (HepG2) [µM] | inhibition (RAW264.7 [3]) | inhibition (RAW264.7 [4]) | inhibition at 6 µM (RAW264.7 [3]) [%] | inhibition (INH) (RAW264.7 [4]) [%]
O=C1/C(=C/c2ccncc2)CN(S(=O)(=O)c2ccc([N+](=O)[O-])cc2)C/C1=C\c1ccccc1F | 8.8 | 15.8 | Non-Toxic | 18.4 | 16 | 11.3 | inactive | inactive |  | 
O=C1/C(=C/c2cccnc2)CN(S(=O)(=O)c2ccccc2)C/C1=C\c1ccccc1C(F)(F)F | 6.24 | 10.9 | Non-Toxic | 12.5 | 14.3 | 5.37 | Active | Active |  | 
COc1ccc(/C=C2\CN(C)C/C(=C\c3cccnc3)C2=O)c(OC)c1OC | 2.63 | 13.7 | Non-Toxic | 13.6 | 11.6 | 5.16 | Active | Active |  | 
O=C1/C(=C/c2cccnc2)CNC/C1=C\c1ccccc1F | 8.89 | > 20 | Non-Toxic | 15.9 | 14.6 | 21 | inactive | inactive |  | 
O=C1/C(=C/c2ccncc2)CN(S(=O)(=O)c2ccc(C(F)(F)F)cc2)C/C1=C\c1ccccc1C(F)(F)F | 4.68 | 3.84 | Non-Toxic | 13.8 | 11.7 | 3.24 |  |  |  | 
CC(=O)Nc1ccc(S(=O)(=O)N2C/C(=C\c3ccncc3)C(=O)/C(=C/c3ccccc3C(F)(F)F)C2)cc1 | 5.56 | 5.76 | Non-Toxic | 10.1 | 8.87 | 4.84 |  |  |  | 
O=C1/C(=C/c2ccncc2)CN(S(=O)(=O)c2ccc(Br)cc2)C/C1=C\c1ccccc1F | 11.5 | 12.6 | Non-Toxic | 19.4 | > 20 | 9.3 | inactive | inactive |  | 
O=C1/C(=C/c2cccnc2)CN(S(=O)(=O)c2ccc([N+](=O)[O-])cc2)C/C1=C\c1ccccc1F | 5.6 | > 20 | Non-Toxic | > 20 | > 20 | 12.8 | inactive | inactive |  | 
CN1C/C(=C\c2cccnc2)C(=O)/C(=C/c2cc([N+](=O)[O-])ccc2F)C1 | 11.1 | 6.17 | Non-Toxic | 15.7 | 14.2 | 6.63 | Active | Active |  | 
S=C(S)N1CCCC1 |  |  |  |  |  |  | Active | Active |  | 
O=C1/C(=C/c2cccnc2)CN(S(=O)(=O)c2ccc([N+](=O)[O-])cc2)C/C1=C\c1ccccc1C(F)(F)F | 7.66 | 15.9 | Non-Toxic | 15.7 | 14.1 | 9.37 | Active | Active |  | 
COc1ccc(/C=C2\CN(C)C/C(=C\c3ccncc3)C2=O)c(OC)c1OC | 8.35 | 9.08 | Non-Toxic | 15.6 | 11.9 | 3.56 | Active | Active |  | 
O=C1/C(=C/c2ccncc2)CN(S(=O)(=O)c2ccc([N+](=O)[O-])cc2)C/C1=C\c1ccccc1C(F)(F)F | 9.73 | > 20 | Non-Toxic | 18.6 | > 20 | 13.4 |  |  |  | 
O=C1/C(=C/c2ccccc2F)CNC/C1=C\c1ccccc1F | 4.97 | 8.8 |  | 10.2 | 14.5 | 3.33 |  |  |  | 
Cc1ccc(S(=O)(=O)N2C/C(=C\c3ccncc3)C(=O)/C(=C/c3ccccc3C(F)(F)F)C2)cc1 | 5.09 | 5.59 | Non-Toxic | 12.8 | 15.9 | 4.64 |  |  |  | 
O=C1/C(=C/c2ccncc2)CN(S(=O)(=O)c2ccc(Br)cc2)C/C1=C\c1ccccc1C(F)(F)F | 7.06 | 10.5 | Non-Toxic | 12.6 | 9.32 | 14.5 |  |  |  | 
